# Source: the supplement of paper PMC10307832
# What was measured:
# Assay in all cases: relative viability (nuclei count vs DMSO), 5 days (fraction); higher = more cells survive
# Apatinib + Pemetrexed = compound: N#CC1(c2ccc(NC(=O)c3cccnc3NCc3ccncc3)cc2)CCCC1 [Apatinib] + Nc1nc2[nH]cc(CCc3ccc(C(=O)N[C@@H](CCC(=O)O)C(=O)O)cc3)c2c(=O)[nH]1 [Pemetrexed] (partner 0.2 µM)
# Procedure, shortened: (§1)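 After 5 days of treatment, lung cancer cells in 1536-well plates were fixed and stained in a single step (final 0.05% Triton X-100, 1% formaldehyde, 1 ug/ml Hoechst) and their nuclei counted on 4× images. Treatment had been applied by pin tool the day after seeding as one drug alone or as a fixed anchor-drug dose with five library-drug doses (not always all listed) in √10 steps. Relative viability is the nuclei count of treated wells divided by that of vehicle wells, and values are medians of duplicate plates.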
# Apatinib + OSI-027 = compound: N#CC1(c2ccc(NC(=O)c3cccnc3NCc3ccncc3)cc2)CCCC1 [Apatinib] + COc1cccc2cc(-c3nc([C@H]4CC[C@H](C(=O)O)CC4)n4ncnc(N)c34)[nH]c12 [OSI-027] (partner 0.5 µM)
# Procedure, shortened: as §1
# Apatinib + Lapatinib = compound: N#CC1(c2ccc(NC(=O)c3cccnc3NCc3ccncc3)cc2)CCCC1 [Apatinib] + CS(=O)(=O)CCNCc1ccc(-c2ccc3ncnc(Nc4ccc(OCc5cccc(F)c5)c(Cl)c4)c3c2)o1 [Lapatinib] (partner 2 µM)
# Procedure, shortened: as §1
# Metformin + Foretinib = compound: CN(C)C(=N)NC(=N)N [Metformin] + COc1cc2c(Oc3ccc(NC(=O)C4(C(=O)Nc5ccc(F)cc5)CC4)cc3F)ccnc2cc1OCCCN1CCOCC1 [Foretinib] (partner 0.25 µM)
# Procedure, shortened: as §1
Cell Line,relative viability (Apatinib + Pemetrexed; first compound 0.08 µM),relative viability (Apatinib + Pemetrexed; first compound 0.253 µM),relative viability (Apatinib + Pemetrexed; first compound 0.8 µM),relative viability (Apatinib + Pemetrexed; first compound 2.53 µM),relative viability (Apatinib + Pemetrexed; first compound 8 µM),relative viability (Apatinib + OSI-027; first compound 0.08 µM),relative viability (Apatinib + OSI-027; first compound 0.253 µM),relative viability (Apatinib + OSI-027; first compound 0.8 µM),relative viability (Apatinib + OSI-027; first compound 2.53 µM),relative viability (Apatinib + OSI-027; first compound 8 µM),relative viability (Apatinib + Lapatinib; first compound 0.08 µM),relative viability (Apatinib + Lapatinib; first compound 0.253 µM),relative viability (Apatinib + Lapatinib; first compound 0.8 µM),relative viability (Apatinib + Lapatinib; first compound 2.53 µM),relative viability (Apatinib + Lapatinib; first compound 8 µM),relative viability (Metformin + Foretinib; first compound 10 µM),relative viability (Metformin + Foretinib; first compound 31.62 µM),relative viability (Metformin + Foretinib; first compound 100 µM),relative viability (Metformin + Foretinib; first compound 316.23 µM),relative viability (Metformin + Foretinib; first compound 1000 µM)
NCI-H1755,0.423,0.441,0.402,0.329,0.364,0.838,0.729,0.699,0.672,0.523,1.03,1,1.04,1.08,0.722,0.757,0.789,0.778,0.742,0.816
NCI-H1437,0.328,0.293,0.306,0.29,0.256,0.84,0.954,0.861,0.615,0.645,0.761,0.841,0.745,0.624,0.537,1.3,1.31,1.32,1.29,1.21
EPLC-272H,0.275,0.333,0.359,0.322,0.199,0.308,–,0.268,0.246,0.247,1.13,0.874,1.11,0.708,1.05,0.864,0.909,0.978,0.784,1.09
LK-2,0.255,0.243,0.255,0.181,0.134,0.217,0.197,0.157,0.205,0.167,0.7,0.827,0.878,0.782,0.73,1.72,1.93,1.79,1.28,–
